# Measured values as given in patent US20080161365A1, “Methylene Derivatives” (PFIZER INC., priority 2005, published 2008).
# pIC50: −log10 of the molar value. Several values for one entry are separate records, joined by “and”; a condition that tells them apart may be missing. Identical values can stand only once.
# What was measured:
# MMP-8 catalytic domain = target: T1, MMP-8 catalytic domain (Homo sapiens, UniProt P22894); assay: MMP-8 catalytic domain thiopeptolide hydrolysis inhibition; type: biochemical; settings: read-out: MMP-8CD IC50
# T1 construct: MMP-7 full-length, MMP-8 catalytic domain, MMP-9 full-length
# From the text: (§1) In general, the MMP inhibition assays measure the amount by which a test compound reduces the hydrolysis of a thiopeptolide substrate catalyzed by a matrix metalloproteinase enzyme. Such assays are described in detail by Ye et al., in Biochemistry, 1992;31(45):11231-11235, which is incorporated herein by reference.
# (§2) Thiopeptolide substrates show virtually no decomposition or hydrolysis at or below neutral pH in the absence of a matrix metalloproteinase enzyme. A typical thiopeptolide substrate commonly utilized for assays is Ac-Pro-Leu-Gly-thioester-Leu-Leu-Gly-OEt. A 100 μL assay mixture will contain 50 mM of N-2-hydroxyethylpiperazine-N′-2-ethanesulfonic acid buffer (“HEPES,” pH 7.0), 10 mM CaCl2, 100 μM thiopeptolide substrate, and 1 mM 5,5′-dithio-bis-(2-nitrobenzoic acid) (DTNB). The thiopeptolide substrate concentration may be varied, for example from 10 to 800 μM to obtain Km and Kcat values. The change in absorbance at 405 nm is monitored on a Thermo Max microplate reader (molecular Devices, Menlo Park, Calif.) at room temperature (22° C.). The calculation of the amount of hydrolysis of the thiopeptolide substrate is based on E412=13600 M^−1 cm^−1 for the DTNB-derived product 3-carboxy-4-nitrothiophenoxide. Assays are carried out with and without matrix metalloproteinase inhibitor compounds, and the amount of hydrolysis is compared for a determination of inhibitory activity of the test compounds.
# (§3) Test compounds were evaluated at various concentrations in order to determine their respective IC50 values, the micromolar concentration of compound required to cause a 50% inhibition of catalytic activity of the respective enzyme.
# Certain compounds of formula (I) have been assayed with MMP-1 full-length, MMP-2 full-length, MMP-3 catalytic domain, MMP-7 full-length, MMP-8 catalytic domain, MMP-9 full-length, MMP-12 catalytic domain, and MMP-14 catalytic domain.
# MMP-2 full-length = target: T2, MMP-2 full-length (Homo sapiens, UniProt P08253); assay: MMP-2 full-length thiopeptolide hydrolysis inhibition; type: biochemical; settings: read-out: MMP-2FL IC50
# T2 construct: further screened with full-length MMP-2, full-length MMP-7, full-length MMP-9
# T2 sequence (P08253 110-660): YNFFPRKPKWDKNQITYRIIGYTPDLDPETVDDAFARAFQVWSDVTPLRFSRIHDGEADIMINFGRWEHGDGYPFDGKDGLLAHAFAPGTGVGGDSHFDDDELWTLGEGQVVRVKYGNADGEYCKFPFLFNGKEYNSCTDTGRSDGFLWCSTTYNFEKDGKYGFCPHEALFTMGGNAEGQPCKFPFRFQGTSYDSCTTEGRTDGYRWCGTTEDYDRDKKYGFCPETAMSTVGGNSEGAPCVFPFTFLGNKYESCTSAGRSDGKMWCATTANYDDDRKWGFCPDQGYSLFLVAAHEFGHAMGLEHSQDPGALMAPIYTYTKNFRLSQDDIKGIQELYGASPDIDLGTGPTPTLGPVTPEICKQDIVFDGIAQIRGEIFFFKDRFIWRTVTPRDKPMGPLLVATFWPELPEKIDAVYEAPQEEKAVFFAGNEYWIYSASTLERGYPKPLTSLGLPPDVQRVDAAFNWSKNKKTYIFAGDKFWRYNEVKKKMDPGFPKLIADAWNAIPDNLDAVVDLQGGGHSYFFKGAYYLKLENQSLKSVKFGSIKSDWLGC
# From the text: as §1
# Thiopeptolide substrates show virtually no decomposition or hydrolysis at or below neutral pH in the absence of a matrix metalloproteinase enzyme. A typical thiopeptolide substrate commonly utilized for assays is Ac-Pro-Leu-Gly-thioester-Leu-Leu-Gly-OEt. A 100 μL assay mixture will contain 50 mM of N-2-hydroxyethylpiperazine-N′-2-ethanesulfonic acid buffer (“HEPES,” pH 7.0), 10 mM CaCl2, 100 μM thiopeptolide substrate, and 1 mM 5,5′-dithio-bis-(2-nitrobenzoic acid) (DTNB). The thiopeptolide substrate concentration may be varied, for example from 10 to 800 μM to obtain Km and Kcat values. The change in absorbance at 405 nm is monitored on a Thermo Max microplate reader (molecular Devices, Menlo Park, Calif.) at room temperature (22° C.). The calculation of the amount of hydrolysis of the thiopeptolide substrate is based on E412=13600 M^−1 cm^−1 for the DTNB-derived product 3-carboxy-4-nitrothiophenoxide. […]
# MMP-1 full-length = target: T3, MMP-1 full-length (Homo sapiens, UniProt P03956); assay: MMP-1 full-length thiopeptolide hydrolysis inhibition; type: biochemical; settings: read-out: MMP-1FL IC50
# T3 construct: have been assayed with MMP-1 full-length, MMP-2 full-length
# T3 sequence (P03956 100-469): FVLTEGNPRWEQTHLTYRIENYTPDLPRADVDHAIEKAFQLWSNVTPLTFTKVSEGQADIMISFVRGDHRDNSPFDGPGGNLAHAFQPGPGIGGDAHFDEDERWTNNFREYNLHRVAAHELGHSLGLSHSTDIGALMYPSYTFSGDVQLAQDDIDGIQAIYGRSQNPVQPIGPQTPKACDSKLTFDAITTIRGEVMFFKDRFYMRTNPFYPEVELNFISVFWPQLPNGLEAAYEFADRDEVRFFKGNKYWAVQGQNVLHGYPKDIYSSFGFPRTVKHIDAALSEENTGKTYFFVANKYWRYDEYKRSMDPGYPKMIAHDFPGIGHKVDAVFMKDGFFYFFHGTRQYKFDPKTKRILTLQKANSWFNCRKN
# From the text: as §1, §2, §3
# (§4) The test described above for the inhibition of MMP-13 may also be adapted and used to determine the ability of the compounds of formula (I) to inhibit the matrix metalloproteases MMP-1, MMP-2, MMP-3, MMP-7, MMP-9, MMP-12, MMP-14, and MMP-17. […]
# MMP-13 catalytic domain = target: T4, MMP-13 catalytic domain (Homo sapiens, UniProt P45452); assay: MMP-13 catalytic domain thiopeptolide hydrolysis inhibition (Biological Method 1); type: biochemical; settings: HEPES pH 7.0, 22° C.; read-out: MMP-13CD IC50
# T4 construct: use the catalytic domain of the MMP-13 enzyme, namely matrix metalloproteinase-13 catalytic domain
# From the text: as §1
# Some of the particular methods described below use the catalytic domain of the MMP-13 enzyme, namely matrix metalloproteinase-13 catalytic domain (“MMP-13CD”), rather than the corresponding full-length enzyme, MMP-13. It has been shown previously by Ye Qi-Zhuang, Hupe D., and Johnson L. (Current Medicinal Chemistry, 1996;3:407-418) that inhibitor activity against a catalytic domain of an MMP is predictive of the inhibitor activity against the respective full-length MMP enzyme.
# Thiopeptolide substrates show virtually no decomposition or hydrolysis at or below neutral pH in the absence of a matrix metalloproteinase enzyme. A typical thiopeptolide substrate commonly utilized for assays is Ac-Pro-Leu-Gly-thioester-Leu-Leu-Gly-OEt. A 100 μL assay mixture will contain 50 mM of N-2-hydroxyethylpiperazine-N′-2-ethanesulfonic acid buffer (“HEPES,” pH 7.0), 10 mM CaCl2, 100 μM thiopeptolide substrate, and 1 mM 5,5′-dithio-bis-(2-nitrobenzoic acid) (DTNB). The thiopeptolide substrate concentration may be varied, for example from 10 to 800 μM to obtain Km and Kcat values. The change in absorbance at 405 nm is monitored on a Thermo Max microplate reader (molecular Devices, Menlo Park, Calif.) at room temperature (22° C.). The calculation of the amount of hydrolysis of the thiopeptolide substrate is based on E412=13600 M^−1 cm^−1 for the DTNB-derived product 3-carboxy-4-nitrothiophenoxide. Assays are carried out with and without matrix metalloproteinase inhibitor compounds, and the amount of hydrolysis is compared for a determination of inhibitory activity of the test compounds. […]
# MMP-9 full-length = target: T5, MMP-9 full-length (Homo sapiens, UniProt P14780); assay: MMP-9 full-length thiopeptolide hydrolysis inhibition; type: biochemical; settings: read-out: MMP-9FL IC50
# T5 construct: further screened with full-length MMP-2, full-length MMP-7, full-length MMP-9
# From the text: as §1, §2, §3, §4
# MMP-7 full-length = target: T6, MMP-7 full-length (Homo sapiens, UniProt P09237); assay: MMP-7 full-length thiopeptolide hydrolysis inhibition; type: biochemical; settings: read-out: MMP-7FL IC50
# T6 construct: further screened with full-length MMP-2, full-length MMP-7, full-length MMP-9
# T6 sequence (P09237 95-267): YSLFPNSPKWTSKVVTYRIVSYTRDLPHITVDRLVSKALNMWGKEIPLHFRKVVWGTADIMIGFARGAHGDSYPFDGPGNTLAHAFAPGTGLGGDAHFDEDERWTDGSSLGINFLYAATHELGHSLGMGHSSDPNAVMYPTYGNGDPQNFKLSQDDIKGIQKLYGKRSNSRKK
# From the text: as §1, §2, §3, §4
# MMP-3 catalytic domain = target: T7, MMP-3 catalytic domain (Homo sapiens, UniProt P08254); assay: MMP-3 catalytic domain thiopeptolide hydrolysis inhibition; type: biochemical; settings: MES buffer pH 6.0; read-out: MMP-3CD IC50
# T7 construct: MMP-2 full-length, MMP-3 catalytic domain, MMP-7 full-length
# From the text: as §1, §2, §3
# The assay buffer used with MMP-3CD was 50 mM N-morpholinoethane sulfonate (“MES”) at pH 6.0 rather than the HEPES buffer at pH 7.0 described above.
# as §4
# MMP-14 catalytic domain = target: T8, MMP-14 catalytic domain (Homo sapiens, UniProt P50281); assay: MMP-14 catalytic domain thiopeptolide hydrolysis inhibition; type: biochemical; settings: read-out: MMP-14CD IC50
# T8 construct: MMP-9 full-length, MMP-12 catalytic domain, and MMP-14 catalytic domain
# From the text: as §1, §2, §3, §4
# MMP-12 catalytic domain = target: T9, MMP-12 catalytic domain (Homo sapiens, UniProt P39900); assay: MMP-12 catalytic domain thiopeptolide hydrolysis inhibition; type: biochemical; settings: read-out: MMP-12CD IC50
# T9 construct: MMP-9 full-length, MMP-12 catalytic domain, and MMP-14 catalytic domain
# From the text: as §1, §2, §3, §4
# [1] = PDS solubility (Chemical Method 1, UV-visible absorbance of saturated solution); type: physicochemical; settings: thermodynamic from solid; pH 6.5 aqueous phosphate buffer, 5% glyme
# Experimental: Solubility of a test compound of the present invention refers to solubility of the compound in a solvent mixture containing ethylene glycol dimethylether (“glyme”) and pH 6.5 aqueous phosphate buffer. The solubility was determined by measuring ultraviolet-visible absorbance of a saturated solution of the compound and comparing the absorbance value to absorbance values obtained for four standard solutions of the compound having known concentrations plotted on a 4-point ultraviolet-visible standard curve. […]
# The prepared 96-well plate was transferred to a 96-well ultraviolet-visible plate reader, and the wells were scanned over wavelengths of from 220 nm to 350 nm with a step size of 2 nm. The ultraviolet-visible data (i.e., data generated at the same wavelength) were electronically exported to a spreadsheet and absorbance data for the filtrate of the saturated solution measured at one wavelength (i.e., the data that had the best linear fit as calculated by the highest regression coefficient, typically 0.98 or higher) and the corresponding standards absorbance data measured at the same wavelength were plotted as a standard absorbance-concentration curve based on the Lambert-Beer law. […] The calculated solubility was expressed as in milligrams of test compound in milliliters of solvent. […]
# T5 sequence (P14780 94-707, species assumed): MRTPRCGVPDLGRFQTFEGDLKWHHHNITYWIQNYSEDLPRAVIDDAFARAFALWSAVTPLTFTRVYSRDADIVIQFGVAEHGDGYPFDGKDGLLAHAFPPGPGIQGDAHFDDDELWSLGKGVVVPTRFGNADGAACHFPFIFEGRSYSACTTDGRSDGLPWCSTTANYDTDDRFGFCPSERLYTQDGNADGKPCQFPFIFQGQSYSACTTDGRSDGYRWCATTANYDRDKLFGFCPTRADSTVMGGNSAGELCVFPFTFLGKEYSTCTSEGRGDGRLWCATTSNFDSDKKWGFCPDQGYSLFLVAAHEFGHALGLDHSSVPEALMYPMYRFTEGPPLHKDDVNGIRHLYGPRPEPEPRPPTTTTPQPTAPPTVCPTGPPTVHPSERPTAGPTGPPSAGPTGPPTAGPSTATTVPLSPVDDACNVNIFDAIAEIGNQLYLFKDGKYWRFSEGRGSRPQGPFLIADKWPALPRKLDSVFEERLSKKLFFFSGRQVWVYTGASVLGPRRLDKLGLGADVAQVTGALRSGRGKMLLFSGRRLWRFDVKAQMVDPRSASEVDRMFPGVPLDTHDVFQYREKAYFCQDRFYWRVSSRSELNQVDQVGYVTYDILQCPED
# T1 sequence (P22894 100-262 limits assumed, species assumed): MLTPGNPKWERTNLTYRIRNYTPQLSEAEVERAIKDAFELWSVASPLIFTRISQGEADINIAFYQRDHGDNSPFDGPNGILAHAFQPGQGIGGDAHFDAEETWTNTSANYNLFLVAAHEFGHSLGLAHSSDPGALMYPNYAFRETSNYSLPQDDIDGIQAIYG
# T9 sequence (P39900 106-263 limits assumed, species assumed): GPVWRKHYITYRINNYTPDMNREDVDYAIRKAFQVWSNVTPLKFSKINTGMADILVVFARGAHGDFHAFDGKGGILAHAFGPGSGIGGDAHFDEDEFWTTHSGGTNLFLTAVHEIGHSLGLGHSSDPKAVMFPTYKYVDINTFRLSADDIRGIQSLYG
# T7 sequence (P08254 100-272 limits assumed, species assumed): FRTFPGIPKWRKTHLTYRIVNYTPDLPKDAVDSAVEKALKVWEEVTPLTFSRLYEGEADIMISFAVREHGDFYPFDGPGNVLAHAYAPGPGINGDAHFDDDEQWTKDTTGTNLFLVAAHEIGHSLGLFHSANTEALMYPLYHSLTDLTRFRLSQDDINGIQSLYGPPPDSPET
pIC50 (MMP-8 catalytic domain),pIC50 (MMP-2 full-length),pIC50 (MMP-1 full-length),pIC50 (MMP-13 catalytic domain),pIC50 (MMP-9 full-length),pIC50 (MMP-7 full-length),pIC50 (MMP-3 catalytic domain),pIC50 (MMP-14 catalytic domain),pIC50 (MMP-12 catalytic domain),solubility [1],Structure (SMILES)
< 4.00,4.05,< 4.00,7.21,> 5.00,> 5.00,5.22,< 4.00,< 4.00,–,"Cc1cc(C(O)CCc2ccc(C(=O)O)cc2)cc(C(=O)NCc2cccc(C(F)(F)F)c2)n1 (stereo not shown) [Example 3, 4-{3-hydroxy-3-[2-methyl-6-(3-trifluoromethyl-benzylcarbamoyl)-pyridin-4-yl]-propyl}-benzoic acid]"
< 4.52,< 4.00,< 4.00,7.06 and 6.96,4.19,5.77,4.89,< 4.00,< 4.00,4 µg/mL,"Cc1cc(C(F)(F)CCc2ccc(C(=O)O)cc2)cc(C(=O)NCc2cccc(C(F)(F)F)c2)n1.O=C(O)C(F)(F)F [Example 2, 4-{3,3-difluoro-3-[2-methyl-6-(3-trifluoromethyl-benzylcarbamoyl)-pyridin-4-yl]-propyl}-benzoic acid monotrifluoroacetic acid salt]"
< 4.52,–,< 4.00,7.55 and 7.41,4.29,4.29,4.96,4.25,< 4.00,27 µg/mL,"Cc1cc(C(F)CCc2ccc(C(=O)O)cc2)cc(C(=O)NCc2cccc(C(F)(F)F)c2)n1 (stereo not shown) [Example 1, 4-{3-fluoro-3-[2-methyl-6-(3-trifluoromethyl-benzylcarbamoyl)-pyridin-4-yl]-propyl}-benzoic acid]"
